Experimental findings from US7598032B2, “Thermostable DNA polymerases incorporating nucleoside triphosphates labeled with fluorescent dyes” (Roche Molecular Systems, priority 1997, dated 2009) are described below.

The target in test [1] is T1, Thermus aquaticus (Taq) DNA polymerase variant G46D F667Y (Thermus aquaticus, UniProt P19821, F667Y/G46D).
T1 construct: Expression vector pRDA3-2 contains the full-length Taq DNA polymerase gene; made in house; host or cells: E. coli DG116 (stated generally for the polymerases of the invention)
T1 sequence (P19821 whole entry G46D/F667Y): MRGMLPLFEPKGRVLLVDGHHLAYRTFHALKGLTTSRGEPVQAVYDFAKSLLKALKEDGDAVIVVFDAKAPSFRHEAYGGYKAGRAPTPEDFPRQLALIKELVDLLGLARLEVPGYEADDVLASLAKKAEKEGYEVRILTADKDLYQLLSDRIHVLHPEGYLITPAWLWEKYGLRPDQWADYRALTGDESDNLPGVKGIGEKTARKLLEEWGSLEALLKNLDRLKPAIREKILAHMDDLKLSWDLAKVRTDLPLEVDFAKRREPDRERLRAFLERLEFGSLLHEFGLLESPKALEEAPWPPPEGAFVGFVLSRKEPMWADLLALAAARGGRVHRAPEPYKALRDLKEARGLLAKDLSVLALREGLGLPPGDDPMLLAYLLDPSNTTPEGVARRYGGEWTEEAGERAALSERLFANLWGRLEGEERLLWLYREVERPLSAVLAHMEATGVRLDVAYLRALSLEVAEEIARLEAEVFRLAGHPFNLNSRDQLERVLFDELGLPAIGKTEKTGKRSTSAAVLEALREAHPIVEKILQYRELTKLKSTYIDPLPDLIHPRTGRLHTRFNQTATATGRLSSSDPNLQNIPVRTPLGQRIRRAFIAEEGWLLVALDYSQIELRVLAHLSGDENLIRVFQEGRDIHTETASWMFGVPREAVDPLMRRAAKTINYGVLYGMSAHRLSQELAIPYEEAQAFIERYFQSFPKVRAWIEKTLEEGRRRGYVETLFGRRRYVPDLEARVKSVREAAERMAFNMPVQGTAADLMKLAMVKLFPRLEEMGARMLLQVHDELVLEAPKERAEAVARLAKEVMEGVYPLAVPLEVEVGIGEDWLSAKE
Kind of test: Limiting template primer extension competition assay (ddNTP incorporation), G46D F667Y Taq. It is filed as biochemical. The method, then: (§1) The ability of the enzymes of this invention to efficiently incorporate nucleotides labeled with fluorescein family dyes is measured by ddNTP incorporation assays. One such assay is a primer extension competition assay conducted under conditions of limiting template. In this assay, a primer DG48 (5′-[…]), (SEQ ID NO: 11), bound to M13 mp18 template (Innis et al., 1988, Proc. Natl. Acad. Sci. USA 85:9436) is extended in the presence of [α-^33P]dCTP and excess enzyme with various levels of a fluorescently labeled ddNTP, Zowie-ddCTP. Because the incorporation of a ddCTP residue terminates the extension reaction, the more readily a DNA polymerase incorporates a ddCTP into an extended primer, the less [α-^33P]dCTP can be incorporated. Thus, as the efficiency of fluorescently labeled ddCTP incorporation increases, the extent of inhibition of DNA synthesis is increased. The reactions were also performed with various levels of an unlabeled ddCTP. […]
(§2) The relative abilities of G46D F667Y Taq, G46D F667Y E681K Taq and F730Y Tma30 DNA polymerases to incorporate a fluorescein dye family-labeled ddCTP were compared by use of a limiting template, primer extension competition assay. […] In this competition assay, because the incorporation of a ddCTP terminates the extension reaction, the more readily the polymerase incorporates a ddCTP into an extended primer, the less [α-^33P]dCTP can be incorporated. […]

In test [2] the target is F730Y Tma30 DNA polymerase (nucleotides 1-570 of Taq DNA polymerase with G46D fused to nucleotides 571-2679 of Tma DNA polymerase with D323A, E325A, F730Y). Kind of test: Limiting template primer extension competition assay (ddNTP incorporation), F730Y Tma30. It is filed as biochemical, Thermus aquaticus / Thermotoga maritima. The following applies: inhibition of DNA synthesis ([α-33P]dCMP incorporation); 20 μM each dNTP, M13 mp18/DG48, pH 8.3, 10 min; 2 units enzyme; read-out: Concentration of Zowie-ddCTP or ddCTP needed for 50% inhibition. As to the method: as §1, §2

In test [3] the test system is primer DG48 annealed to M13 mp18 template. Description: limiting template, primer extension competition assay (ddNTP incorporation assay). It is filed as biochemical. To be noted: ratio of concentrations for 50% inhibition by Zowie-ddCTP vs. ddCTP. As to the method:
as §1, §2

A short description of test [4]: dye-terminator dideoxy-sequencing using rhodamine-labeled terminators. Type of test: biochemical.

In the case of `Nc1ccn([C@H]2CC[C@@H](COP(=O)(O)OP(=O)(O)OP(=O)(O)O)O2)c(=O)n1` [ddCTP], the IC50 in test [1] worked out at 0.056 µM; in test [2], 0.057 µM.

B1: G46D F667Y E681K Taq: thermostable Taq DNA polymerase with G46D, F667Y and E681K mutations, encoded by plasmid pLK113 (protein, UniProt P19821 1-832, looked up, variant G46D F667Y E681K)
DNA polymerase I, thermostable: MRGMLPLFEPKGRVLLVDGHHLAYRTFHALKGLTTSRGEPVQAVYDFAKSLLKALKEDGDAVIVVFDAKAPSFRHEAYGGYKAGRAPTPEDFPRQLALIKELVDLLGLARLEVPGYEADDVLASLAKKAEKEGYEVRILTADKDLYQLLSDRIHVLHPEGYLITPAWLWEKYGLRPDQWADYRALTGDESDNLPGVKGIGEKTARKLLEEWGSLEALLKNLDRLKPAIREKILAHMDDLKLSWDLAKVRTDLPLEVDFAKRREPDRERLRAFLERLEFGSLLHEFGLLESPKALEEAPWPPPEGAFVGFVLSRKEPMWADLLALAAARGGRVHRAPEPYKALRDLKEARGLLAKDLSVLALREGLGLPPGDDPMLLAYLLDPSNTTPEGVARRYGGEWTEEAGERAALSERLFANLWGRLEGEERLLWLYREVERPLSAVLAHMEATGVRLDVAYLRALSLEVAEEIARLEAEVFRLAGHPFNLNSRDQLERVLFDELGLPAIGKTEKTGKRSTSAAVLEALREAHPIVEKILQYRELTKLKSTYIDPLPDLIHPRTGRLHTRFNQTATATGRLSSSDPNLQNIPVRTPLGQRIRRAFIAEEGWLLVALDYSQIELRVLAHLSGDENLIRVFQEGRDIHTETASWMFGVPREAVDPLMRRAAKTINYGVLYGMSAHRLSQKLAIPYEEAQAFIERYFQSFPKVRAWIEKTLEEGRRRGYVETLFGRRRYVPDLEARVKSVREAAERMAFNMPVQGTAADLMKLAMVKLFPRLEEMGARMLLQVHDELVLEAPKERAEAVARLAKEVMEGVYPLAVPLEVEVGIGEDWLSAKE
As to B1, the “Zowie-ddCTP/ddCTP (ratio of concentrations for 50% inhibition)” value in test [3] is recorded as 1.2. The “peak heights in dye-terminator dideoxy-sequencing” value in test [4] was “more uniform peak heights”.
